Laboratory results reported in patent publication US20100227921A1, “AMINO ACID AND PEPTIDE CARBAMATE PRODRUGS OF […] USES THEREOF” (SHIRE LLC, priority 2009, published 2010).
Several values for one entry are separate records, joined by “and”; a condition that tells them apart may be missing. Equal values may be shown once. Read-outs that look alike come from different tables or passages of the source. Marks after values point to notes of the source that are not given here.

Assay: Comparative bioavailability after oral administration to rats (plasma LC-MS-MS)
Type: in vivo
Procedure: Test substances, i.e., tapentadol or tapentadol valine carbamate were administered by oral gavage to groups of male Sprague Dawley rats.
Blood samples were taken at various times after administration and submitted to analysis for the parent drug and pro-drug using a validated LC-MS-MS assay. Pharmacokinetic parameters derived from the plasma analytical data were determined using Win Nonlin.

[1] = male rat, oral tapentadol valine carbamate 10 mg tapentadol free base equiv/kg, individual animals 6-10

CC[C@H](c1cccc(OC(=O)N[C@H](C(=O)O)C(C)C)c1)[C@H](C)CN(C)C (racemic) [Tapentadol valine carbamate, 2-[3-(3-Dimethylamino-1-ethyl-2-methyl-propyl)-phenoxycarbonylamino]-3-methyl-butyric acid]
concentration at 0.5 h (Sprague Dawley, plasma, male rat, oral tapentadol valine carbamate 10 mg tapentadol free base equiv/kg, 0.5 h, individual animals 6-10, read-out: Plasma concentration of tapentadol valine carbamate): 64.5 ng/mL | concentration at 1 h (Sprague Dawley, plasma, male rat, oral tapentadol valine carbamate 10 mg tapentadol free base equiv/kg, 1 h, individual animals 6-10, read-out: Plasma concentration of tapentadol valine carbamate): 72.4 ng/mL | concentration at 2 h (Sprague Dawley, plasma, male rat, oral tapentadol valine carbamate 10 mg tapentadol free base equiv/kg, 2 h, individual animals 6-10, read-out: Plasma concentration of tapentadol valine carbamate): 85.8 ng/mL | concentration at 4 h (Sprague Dawley, plasma, male rat, oral tapentadol valine carbamate 10 mg tapentadol free base equiv/kg, 4 h, individual animals 6-10, read-out: Plasma concentration of tapentadol valine carbamate): 42.5 ng/mL | concentration at 6 h (Sprague Dawley, plasma, male rat, oral tapentadol valine carbamate 10 mg tapentadol free base equiv/kg, 6 h, individual animals 6-10, read-out: Plasma concentration of tapentadol valine carbamate): 30.5 ng/mL | Plasma concentration of tapentadol valine carbamate (male rat, oral tapentadol valine carbamate 10 mg tapentadol free base equiv/kg, 0.5 h, individual animals 6-10): 79.5 ng/mL and 86.5 ng/mL and 77.5 ng/mL and 111 ng/mL | Plasma concentration of tapentadol valine carbamate (male rat, oral tapentadol valine carbamate 10 mg tapentadol free base equiv/kg, 1 h, individual animals 6-10): 73.8 ng/mL and 88.9 ng/mL and 83.1 ng/mL and 115 ng/mL | Plasma concentration of tapentadol valine carbamate (male rat, oral tapentadol valine carbamate 10 mg tapentadol free base equiv/kg, 2 h, individual animals 6-10): 57.3 ng/mL and 106 ng/mL and 76.4 ng/mL and 86.6 ng/mL | Plasma concentration of tapentadol valine carbamate (male rat, oral tapentadol valine carbamate 10 mg tapentadol free base equiv/kg, 3 h, individual animals 6-10): 76.7 ng/mL and 71.6 ng/mL and 74.8 ng/mL and 34.5 ng/mL and 86.4 ng/mL | Plasma concentration of tapentadol valine carbamate (male rat, oral tapentadol valine carbamate 10 mg tapentadol free base equiv/kg, 4 h, individual animals 6-10): 46.7 ng/mL and 47.0 ng/mL and 27.5 ng/mL and 51.6 ng/mL | Plasma concentration of tapentadol valine carbamate (male rat, oral tapentadol valine carbamate 10 mg tapentadol free base equiv/kg, 6 h, individual animals 6-10): 19.9 ng/mL and 38.9 ng/mL and 22.7 ng/mL and 31.3 ng/mL | Plasma concentration of tapentadol valine carbamate (male rat, oral tapentadol valine carbamate 10 mg tapentadol free base equiv/kg, 8 h, individual animals 6-10): 32.7 ng/mL and 14.6 ng/mL and 26.5 ng/mL and 21.3 ng/mL and 25.4 ng/mL | Plasma concentration of tapentadol valine carbamate (male rat, oral tapentadol valine carbamate 10 mg tapentadol free base equiv/kg, 12 h, individual animals 6-10): 9.49 ng/mL and 27.0 ng/mL and 11.4 ng/mL and 5.81 ng/mL and 14.5 ng/mL | Plasma concentration of tapentadol valine carbamate (male rat, oral tapentadol valine carbamate 10 mg tapentadol free base equiv/kg, 24 h, individual animals 6-10): 2.00 ng/mL and 0.915 ng/mL and 0.801 ng/mL and 0.656 ng/mL and 0.548 ng/mL | AUCt of tapentadol valine carbamate [1]: 599 ng·h/mL and 615 ng·h/mL and 413 ng·h/mL and 650 ng·h/mL | Cmax of tapentadol valine carbamate [1]: 79.5 ng/mL and 106 ng/mL and 83.1 ng/mL and 115 ng/mL | T>50%Cmax of tapentadol valine carbamate [1]: 2.5 h (2×) and 3.5 h (2×) and 1.5 h | Tmax of tapentadol valine carbamate [1]: 2 h | t½ of tapentadol valine carbamate [1]: 3.83 h and 3.16 h and 3.60 h and 3.06 h | T>50%Cmax of tapentadol valine carbamate (male rat, oral tapentadol valine carbamate 10 mg tapentadol free base equiv/kg, median): 2.5^a h | Peak plasma levels of tapentadol compared with those after administration of the parent drug (male rat, oral, 10 mg tapentadol free base equiv/kg): somewhat lower | concentration at 0.5 h (male, Sprague Dawley, rat, plasma, po, 10 mg tapentadol free base equiv/kg, oral tapentadol valine carbamate 10 mg tapentadol free base equiv/kg, 0.5 h, mean, read-out: Plasma concentration of tapentadol valine carbamate): 83.8 ng/mL | concentration at 1 h (male, Sprague Dawley, rat, plasma, po, 10 mg tapentadol free base equiv/kg, oral tapentadol valine carbamate 10 mg tapentadol free base equiv/kg, 1 h, mean, read-out: Plasma concentration of tapentadol valine carbamate): 86.6 ng/mL | concentration at 2 h (male, Sprague Dawley, rat, plasma, po, 10 mg tapentadol free base equiv/kg, oral tapentadol valine carbamate 10 mg tapentadol free base equiv/kg, 2 h, mean, read-out: Plasma concentration of tapentadol valine carbamate): 82.4 ng/mL | concentration at 3 h (male, Sprague Dawley, rat, plasma, po, 10 mg tapentadol free base equiv/kg, oral tapentadol valine carbamate 10 mg tapentadol free base equiv/kg, 3 h, mean, read-out: Plasma concentration of tapentadol valine carbamate): 68.8 ng/mL | concentration at 4 h (male, Sprague Dawley, rat, plasma, po, 10 mg tapentadol free base equiv/kg, oral tapentadol valine carbamate 10 mg tapentadol free base equiv/kg, 4 h, mean, read-out: Plasma concentration of tapentadol valine carbamate): 43.1 ng/mL | concentration at 6 h (male, Sprague Dawley, rat, plasma, po, 10 mg tapentadol free base equiv/kg, oral tapentadol valine carbamate 10 mg tapentadol free base equiv/kg, 6 h, mean, read-out: Plasma concentration of tapentadol valine carbamate): 28.7 ng/mL | concentration at 8 h (male, Sprague Dawley, rat, plasma, po, 10 mg tapentadol free base equiv/kg, oral tapentadol valine carbamate 10 mg tapentadol free base equiv/kg, 8 h, mean, read-out: Plasma concentration of tapentadol valine carbamate): 24.1 ng/mL | concentration at 12 h (male, Sprague Dawley, rat, plasma, po, 10 mg tapentadol free base equiv/kg, oral tapentadol valine carbamate 10 mg tapentadol free base equiv/kg, 12 h, mean, read-out: Plasma concentration of tapentadol valine carbamate): 13.6 ng/mL | concentration at 24 h (male, Sprague Dawley, rat, plasma, po, 10 mg tapentadol free base equiv/kg, oral tapentadol valine carbamate 10 mg tapentadol free base equiv/kg, 24 h, mean): 0.984 ng/mL | half-life (male, Sprague Dawley, rat, plasma, po, 10 mg tapentadol free base equiv/kg, oral tapentadol valine carbamate 10 mg tapentadol free base equiv/kg, calculated as ln2/mean k, read-out: t½ of tapentadol valine carbamate (converted)): 3.54 h | AUC(0-t) (male, Sprague Dawley, rat, plasma, po, 10 mg tapentadol free base equiv/kg, oral tapentadol valine carbamate 10 mg tapentadol free base equiv/kg, individual animals 6-10, read-out: AUCt of tapentadol valine carbamate): 560 ng·h/mL
